Measurements reported in PubChem BioAssay (NCI).
Where “and” joins values, the source holds several entries; their conditions need not be identical. Equal entries are not always repeated.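 Results reflect a 48-hour exposure of cells in 96-well plates to compound at five concentrations. Here, GI50 denotes the concentration required for 50% inhibition of growth. TGI marks complete inhibition of growth.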

Key:
Assay in all cases: growth of human tumour cells (NCI), 48 h
ACHN renal = test system: ACHN renal
HOP-62 NSCLC = test system: HOP-62 NSCLC
HS 578T breast = test system: HS 578T breast
MCF7 breast = test system: MCF7 breast
NCI-H522 lung = test system: NCI-H522 lung
RPMI-8226 leukemia = test system: RPMI-8226 leukemia
SF-268 CNS = test system: SF-268 CNS
SF-295 CNS = test system: SF-295 CNS
SN12C renal = test system: SN12C renal
UACC-62 melanoma = test system: UACC-62 melanoma

| SMILES | GI50 (ACHN renal) [µM] | TGI (ACHN renal) | GI50 (HOP-62 NSCLC) | TGI (HOP-62 NSCLC) | GI50 (HS 578T breast) [µM] | TGI (HS 578T breast) | GI50 (MCF7 breast) | TGI (MCF7 breast) | GI50 (NCI-H522 lung) | TGI (NCI-H522 lung) | GI50 (RPMI-8226 leukemia) | TGI (RPMI-8226 leukemia) | GI50 (SF-268 CNS) [µM] | TGI (SF-268 CNS) | GI50 (SF-295 CNS) [µM] | TGI (SF-295 CNS) | GI50 (SN12C renal) | TGI (SN12C renal) [µM] | GI50 (UACC-62 melanoma) [µM] | TGI (UACC-62 melanoma) |
| --- | --- | --- | --- | --- | --- | --- | --- | --- | --- | --- | --- | --- | --- | --- | --- | --- | --- | --- | --- | --- |
| CN1CCN(CCc2cccc(C(=O)c3cnn(-c4ccc(F)cc4)c3N)c2)CC1 | > 25 | > 25 µM | > 25 µM | > 25 µM | > 25 | > 25 µM | > 25 µM | > 25 µM | > 25 µM | > 25 µM | > 25 µM | > 25 µM | > 25 | > 25 µM | > 25 | > 25 µM | > 25 µM | > 25 | > 25 | > 25 µM |
| C[C@H](Nc1ncnc2nc[nH]c12)c1cc2cccc(Cl)c2c(=O)n1-c1ccccc1 | 5 | > 100 µM | 30.3 µM | > 100 µM | 0.631 | 14.5 µM | 3.16 µM | > 100 µM | 6.93 µM | > 100 µM | 60.3 µM | > 100 µM | 22.6 | > 100 µM | 1.54 | > 100 µM | 3.11 µM | > 100 | 2.6 | > 100 µM |
| COc1cc(C2c3cc4c(cc3[C@@H](Nc3ccc(C#N)cc3)C3COC(=O)[C@H]23)OCO4)cc(OC)c1O (some centres undefined) | 0.128 | 1.24 µM and 2.41 µM | 0.194 µM and 0.234 µM | 2.82 µM and 0.59 µM and 2.57 µM | 3.38 | 29.1 µM and > 100 µM | 0.329 µM and 0.188 µM | 40.4 µM and 75 µM and > 100 µM | 1.44 µM and 1.55 µM | 7.51 µM and 4.48 µM and 7.4 µM | 0.869 µM and 1.33 µM | 1.42 µM and 3.87 µM and 4.73 µM | 1.4 | 42.5 µM and > 100 µM | 0.336 | 8.74 µM and 3.65 µM | 1.91 µM and 0.728 µM |  | 0.783 | 9.01 µM and 14.1 µM |
| CCN(CC)c1ccc(C(=C2C=CC(=[N+](CC)Cc3cccc(S(=O)(=O)O)c3)C=C2)c2ccc(N(CC)Cc3cccc(S(=O)(=O)O)c3)cc2)cc1 | 9.48 | > 68.5 µM | 4.59 µM | > 96.6 µM | 2.86 | > 30.5 µM | 3.66 µM | > 100 µM | 7.88 µM | > 79.2 µM | 3.32 µM | > 51.1 µM | 4.12 | > 79.4 µM | 2.81 | > 47 µM | 3.24 µM | > 100 | 13 | 87 µM |
| CN(CCCN)CCCNc1nc2ccccc2c2[nH]c3ccccc3c12 | 0.409 | 4.45 µM | 0.179 µM | 0.683 µM | 0.0765 | 0.334 µM | 0.245 µM | 1.03 µM | 0.0613 µM | 0.215 µM | 0.207 µM | 0.947 µM | 0.241 | 1.07 µM | 0.224 | 0.738 µM | 0.119 µM | 0.606 | 0.285 | 0.692 µM |
| CC(C)(C)C[C@H]1NC(C(=O)NCC[C@H](O)CO)[C@H](c2cccc(Cl)c2)[C@@]12C(=O)Nc1cc(Cl)c(F)cc12 (some centres undefined) | 3.28 | 16.3 µM | 15.5 µM | 29.7 µM | 16 | 60.4 µM | 1.61 µM | 11.7 µM | 14.3 µM | 30 µM | 12.8 µM | 38.4 µM | 13.7 | 30.2 µM | 13.4 | 28.1 µM | 19.8 µM | 46.8 | 1.6 | 15.8 µM |
| C=CCc1c2c(c(OC)c3ccoc13)C(=O)/C(=C/c1ccccc1OC)O2 | 4.33 | > 100 µM | 4.98 µM | 46.3 µM | 5.29 | > 100 µM | 2.92 µM | > 100 µM | 3.16 µM | 31.7 µM | 3.51 µM | > 100 µM | 3.73 | 60.4 µM | 3.67 | > 100 µM | 4.85 µM | > 100 | 4.14 | 58.4 µM |
| ClCCn1c(CCl)nc2ccc(Cl)cc21 | 1.35 | 2.72 µM | 1.58 µM | 3.3 µM | 2.06 | 7.03 µM | 0.372 µM | 2.01 µM | 0.185 µM | 0.363 µM | 1.42 µM | 3.87 µM | 1.22 | 2.95 µM | 2.21 | 5.5 µM | 0.257 µM | 0.708 | 0.43 | 1.59 µM |
| COC1(C(=O)N[C@@H](C)c2ccc(-n3cc(F)cn3)nc2)CCC(c2nc(C)cc(Nc3cc(C)[nH]n3)n2)CC1 (some centres undefined) | 1.01 | 3.49 µM | 1.34 µM | 14.6 µM | 0.248 | 1.31 µM | 1.53 µM | 14.6 µM | 2.26 µM | 16.7 µM | 7.18 µM | 40 µM | 0.811 | 8.04 µM | 1.17 | 3.95 µM | 0.581 µM | 12.4 | 4.14 | 17.4 µM |
| COc1c2c(c3c(c1CCC(=O)O)OC(C)(C)C=C3)OC(C)(C)C=C2 |  | > 100 µM |  | > 100 µM |  | > 100 µM |  | > 100 µM |  | > 100 µM |  | > 100 µM |  | > 100 µM |  | > 100 µM |  | > 100 |  | > 100 µM |
| C1CCSCCCCSCCCCSCCCCSC1 |  | > 100 µM |  | > 100 µM |  | > 100 µM |  | > 100 µM |  | > 100 µM |  | > 100 µM |  | > 100 µM |  | > 100 µM |  | > 100 |  | > 100 µM |
| COc1ccc2nc3cc([N+](=O)[O-])ccc3c(NCCCCCN(C)C)c2c1 | 0.592 | 7.49 µM | 0.0536 µM | 0.301 µM | 0.376 | 4.66 µM | 0.0514 µM | 1.04 µM | 0.03 µM | 0.0907 µM | 0.0741 µM | 1.25 µM | 0.285 | 2.26 µM | 0.353 | 2.52 µM | 0.179 µM | 0.631 | 0.231 | 0.74 µM |
| COC(=O)[C@H](Cc1cn(C)cn1)NC(=O)[C@H](Cc1c[nH]c2ccccc12)NC(=O)Nc1cc(C(F)(F)F)cc(C(F)(F)F)c1 | > 10 | > 10 µM | > 10 µM | > 10 µM | > 10 | > 10 µM | > 10 µM | > 10 µM | > 10 µM | > 10 µM | > 10 µM | > 10 µM | > 10 | > 10 µM | > 10 | > 10 µM | > 10 µM | > 10 | > 10 | > 10 µM |
